What was measured:
[1] = test system: A549; assay: Antiproliferative activity against human A549 cells after 72 hrs; format: functional, cell-based; conditions: A549, 72 h
[2] = test system: MCF7; assay: Antiproliferative activity against human MCF7 cells after 72 hrs; format: functional, cell-based; conditions: MCF7, 72 h
[3] = test system: Tubulin (Sus scrofa); assay: Induction of porcine brain tubulin polymerization at 2 uM relative to 25 uM epothilone B
[4] = test system: Tubulin (Sus scrofa); assay: Induction of porcine brain tubulin polymerization at 5 uM relative to 25 uM epothilone B
[5] = Antiproliferative activity against human KB-3-1 cells after 72 hrs; format: functional, cell-based; conditions: KB 3-1, 72 h

C/C(=C\c1csc(C)n1)[C@@H]1C[C@@H]2OC(c3cccnc3)=N[C@H]2CCC[C@H](C)[C@H](O)[C@@H](C)C(=O)C(C)(C)[C@@H](O)CC(=O)O1
IC50 [1]: 0.00092 µM | IC50 [2]: 0.0013 µM | Activity [3]: 78% | Activity [4]: 93%

C/C(=C\c1csc(C)n1)[C@@H]1C[C@@H]2OC(c3ccccc3)=N[C@H]2CCC[C@H](C)[C@H](O)[C@@H](C)C(=O)C(C)(C)[C@@H](O)CC(=O)O1
IC50 [1]: 0.0164 µM | IC50 [2]: 0.0192 µM | Activity [3]: 65% | Activity [4]: 80%

CCc1ccc(C2=N[C@H]3CCC[C@H](C)[C@H](O)[C@@H](C)C(=O)C(C)(C)[C@@H](O)CC(=O)O[C@H](/C(C)=C/c4csc(C)n4)C[C@@H]3O2)cc1
IC50 [1]: 0.379 µM | IC50 [2]: 0.297 µM | Activity [3]: 32% | Activity [4]: 36%

CC1=N[C@H]2CCC[C@H](C)[C@H](O)[C@@H](C)C(=O)C(C)(C)[C@@H](O)CC(=O)O[C@H](/C(C)=C/c3csc(C)n3)C[C@@H]2O1
IC50 [5]: > 1 µM

C/C(=C\c1csc(C)n1)[C@@H]1C[C@@H]2OC(c3ccc(C(C)C)cc3)=N[C@H]2CCC[C@H](C)[C@H](O)[C@@H](C)C(=O)C(C)(C)[C@@H](O)CC(=O)O1
IC50 [1]: 4.87 µM | IC50 [2]: 5.14 µM | Activity [3]: 14% | Activity [4]: 15%

C/C(=C\c1csc(C)n1)[C@@H]1CC2O[C@@H]2CCC[C@H](C)[C@H](O)[C@@H](C)C(=O)C(C)(C)[C@@H](O)CC(=O)O1 (single isomer, unassigned) [EPOTHILONE A]
IC50 [1]: 0.0022 µM | IC50 [2]: 0.0026 µM | Activity [3]: 83% | Activity [4]: 89%

COC1=N[C@H]2CCC[C@H](C)[C@H](O)[C@@H](C)C(=O)C(C)(C)[C@@H](O)CC(=O)O[C@H](/C(C)=C/c3csc(C)n3)C[C@@H]2O1
IC50 [5]: > 1 µM

C/C(=C\c1csc(C)n1)[C@@H]1C[C@@H]2OC(c3ccc(C)cc3)=N[C@H]2CCC[C@H](C)[C@H](O)[C@@H](C)C(=O)C(C)(C)[C@@H](O)CC(=O)O1
IC50 [1]: 0.0029 µM | IC50 [2]: 0.0019 µM | Activity [3]: 71% | Activity [4]: 88%

C/C(=C\c1csc(C)n1)[C@@H]1C[C@@H]2OC(c3ccc(C(C)(C)C)cc3)=N[C@H]2CCC[C@H](C)[C@H](O)[C@@H](C)C(=O)C(C)(C)[C@@H](O)CC(=O)O1
IC50 [1]: > 10 µM | IC50 [2]: > 10 µM | Activity [3]: 0% | Activity [4]: 7%

— ChEMBL document CHEMBL1151926, “Synthesis and SAR of C12-C13-oxazoline derivatives of epothilone A” (Bioorg Med Chem Lett, 2009)
